pIC50, pKi: −log10 of the molar value. Like-named read-outs stand apart in the source and are kept apart here.

Experimental findings from patent US20100286145A1, “ISOPHTHALAMIDE DERIVATIVES INHIBITING BETA-SECRETASE ACTIVITY” (CoMentis, Inc., priority 2007, published 2010) are described below.

Test [1] concerns Aβ production in Chinese hamster ovary cells that over-express human APP695 with the London and Swedish mutations. In words: Cellular Aβ IC50 determination (Aβ40 sandwich ELISA). As to conditions: Cricetulus griseus; cellular Aβ production; read-out: IC50. The class given is cell-based. In a few lines: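 CHO cells overexpressing human APP695 with London and Swedish mutations, seeded at 10% confluency, treated with compounds up to about 4 μM final (0.4% DMSO). Secreted Aβ40 measured by sandwich ELISA relative to control and fitted to a 4-parameter IC50 model.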

In test [2] the target is T1, memapsin 1 (Homo sapiens, UniProt Q9Y5Z0).
T1 sequence (Q9Y5Z0 63-518): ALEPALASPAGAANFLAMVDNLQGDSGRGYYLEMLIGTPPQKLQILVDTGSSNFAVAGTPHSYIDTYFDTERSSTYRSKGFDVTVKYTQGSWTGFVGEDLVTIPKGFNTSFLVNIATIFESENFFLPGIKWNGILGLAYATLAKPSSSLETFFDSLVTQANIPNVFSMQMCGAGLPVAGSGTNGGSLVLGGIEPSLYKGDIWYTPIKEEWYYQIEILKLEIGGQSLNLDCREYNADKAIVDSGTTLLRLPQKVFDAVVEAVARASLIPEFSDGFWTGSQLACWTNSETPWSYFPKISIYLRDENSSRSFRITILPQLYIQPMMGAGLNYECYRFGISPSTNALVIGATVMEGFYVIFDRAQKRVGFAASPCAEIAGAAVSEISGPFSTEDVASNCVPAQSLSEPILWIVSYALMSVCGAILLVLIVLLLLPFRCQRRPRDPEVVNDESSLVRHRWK
As to the kind of experiment: Inhibition of memapsin 1 beta-secretase activity (substrate peptide ELDLAVEFWHDR, MALDI-TOF). The class given is biochemical. The note with it: read-out: M1Ki.

Test [3] deals with cathepsin D (Homo sapiens, UniProt P07339). In words: Inhibition of cathepsin D activity (substrate peptide ELDLAVEFWHDR, MALDI-TOF). The class given is biochemical. As to conditions: read-out: CDKi.
The target of test [4] is memapsin 2 (Homo sapiens, UniProt P56817). As to the kind of experiment: Inhibition of memapsin 2 beta-secretase activity (fluorogenic substrate FS-2). The class given is biochemical. As to conditions: memapsin 2, pH 4, 37° C., read-out: M2Ki. In a few lines: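 Memapsin 2 pre-incubated 20 min with compound at pH 4, 37° C, then FS-2 substrate (MCA-SEVNLDAEFK-DNP, APP Swedish cleavage site) added. Rate of fluorescence increase compared with uninhibited controls, fitted to a tight-binding inhibition model.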
Sequence of memapsin 2 (P56817 46-501): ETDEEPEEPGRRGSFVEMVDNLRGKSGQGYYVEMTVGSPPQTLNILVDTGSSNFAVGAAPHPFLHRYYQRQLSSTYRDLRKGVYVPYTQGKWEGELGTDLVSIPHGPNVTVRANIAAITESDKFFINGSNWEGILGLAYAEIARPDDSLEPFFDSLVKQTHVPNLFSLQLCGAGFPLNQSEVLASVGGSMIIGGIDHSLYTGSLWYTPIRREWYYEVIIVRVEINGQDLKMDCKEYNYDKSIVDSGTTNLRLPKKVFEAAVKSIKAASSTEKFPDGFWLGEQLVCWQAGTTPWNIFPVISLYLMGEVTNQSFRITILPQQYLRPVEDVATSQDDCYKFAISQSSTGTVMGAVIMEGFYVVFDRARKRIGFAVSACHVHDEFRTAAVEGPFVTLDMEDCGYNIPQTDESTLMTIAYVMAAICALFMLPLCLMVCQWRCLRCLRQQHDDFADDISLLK

Sequence of cathepsin D (P07339 65-412, species assumed): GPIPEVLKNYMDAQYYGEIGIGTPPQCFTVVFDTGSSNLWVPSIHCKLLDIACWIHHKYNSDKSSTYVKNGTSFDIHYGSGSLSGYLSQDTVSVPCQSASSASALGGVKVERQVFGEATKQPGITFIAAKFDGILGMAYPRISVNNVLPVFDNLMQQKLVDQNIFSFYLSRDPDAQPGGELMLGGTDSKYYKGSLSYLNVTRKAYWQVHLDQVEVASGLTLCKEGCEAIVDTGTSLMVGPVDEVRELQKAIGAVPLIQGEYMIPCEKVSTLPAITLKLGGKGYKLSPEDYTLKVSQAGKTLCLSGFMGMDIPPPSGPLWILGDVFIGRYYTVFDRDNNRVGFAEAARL

As a reminder, the pIC50 is the IC50 on a negative log10 scale, so that one unit is a factor of ten. As for `COc1cccc(CNC[C@@H](O)[C@H](Cc2ccccc2)NC(=O)c2cc(OC)cc(C(=O)N(C)Cc3nc(C)cs3)c2)c1` [Compound 3, N1-((2S,3R)-3-hydroxy-4-(3-methoxybenzylamino)-1-phenylbutan-2-yl)-5-methoxy-N3-methyl-N3-((4-methylthiazol-2-yl)methyl)isophthalamide], the negative logarithm of the IC50 (pIC50) in test [1] is more than 6.00. In addition, the figures for the pKi in test [2], in test [3] and in test [4] (20 minutes pre-incubation) were 6.30 to 6.52, more than 6.52 and more than 6.52, respectively.
On to `COc1cc(CNC[C@@H](O)[C@H](Cc2ccccc2)NC(=O)c2cccc(C(=O)N(C)Cc3nc(C)cs3)c2)cc(OC)c1` [Compound 8, N1-((2S,3R)-4-(3,5-dimethoxybenzylamino)-3-hydroxy-1-phenylbutan-2-yl)-N3-methyl-N3-((4-methylthiazol-2-yl)methyl)isophthalamide], for which the negative logarithm of the IC50 (pIC50) in test [1] was more than 6.00. In addition, the pKi in test [2] was 6.30 to 6.52; in test [3], more than 6.52; in test [4] (20 minutes pre-incubation) it was more than 6.52.
In the case of `COC(=O)c1cc(C(=O)N[C@@H](Cc2ccccc2)[C@H](O)CNCc2cccc(OC)c2)cc(C(=O)N(C)Cc2nc(C)cs2)c1` [Compound 17, methyl 3-((2S,3R)-3-hydroxy-4-(3-methoxybenzylamino)-1-phenylbutan-2-ylcarbamoyl)-5-(methyl((4-methylthiazol-2-yl)methyl)carbamoyl)benzoate], in test [1], the pIC50 was more than 6.00. Also, the pKi in test [2] is less than 6.30; in test [3] it was more than 6.52; in test [4] (20 minutes pre-incubation), more than 6.52.
Take `COc1cccc(CNC[C@@H](O)[C@H](Cc2ccccc2)NC(=O)c2cc(C(N)=O)cc(C(=O)N[C@H](C)c3ccccc3)c2)c1` [Compound 91, N1-((2S,3R)-3-hydroxy-4-(3-methoxybenzylamino)-1-phenylbutan-2-yl)-N3-((R)-1-phenylethyl)benzene-1,3,5-tricarboxamide]: the pKi in test [2] is more than 6.52; in test [3] it was less than 6.30; in test [4] (20 minutes pre-incubation) it was less than 6.30.
For `Cc1csc(CN(C)C(=O)c2cc(C(=O)N[C@@H](Cc3ccccc3)[C@H](O)CNCc3cncc(C(C)C)c3)cc(-c3ncco3)c2)n1` [Compound 170, N1-((2S,3R)-3-hydroxy-4-((5-isopropylpyridin-3-yl)methylamino)-1-phenylbutan-2-yl)-N3-methyl-N3-((4-methylthiazol-2-yl)methyl)-5-(oxazol-2-yl)isophthalamide], the negative logarithm of the IC50 (pIC50) in test [1] was more than 6.00. Besides, the pKi in test [2] and in test [4] (20 minutes pre-incubation) was more than 6.52 each time.
On to `Cc1csc(CN(C)C(=O)c2cccc(C(=O)N[C@@H](Cc3cc(F)cc(F)c3)[C@H](O)CNCc3cncc(C(C)C)c3)c2)n1` [Compound 208, N1-((2S,3R)-1-(3,5-difluorophenyl)-3-hydroxy-4-((5-isopropylpyridin-3-yl)methylamino)butan-2-yl)-N3-methyl-N3-((4-methylthiazol-2-yl)methyl)isophthalamide], for which, in test [1], the pIC50 was more than 6.00. Moreover, the pKi in test [2] and in test [4] (20 minutes pre-incubation) was more than 6.52 throughout.
Regarding `Cc1csc(CN(C)C(=O)c2cc(C(=O)N[C@@H](Cc3ccccc3)[C@H](O)CNCc3cncc(C(C)C)c3)cc(-c3cnco3)c2)n1` [Compound 218, N1-((2S,3R)-3-hydroxy-4-((5-isopropylpyridin-3-yl)methylamino)-1-phenylbutan-2-yl)-N3-methyl-N3-((4-methylthiazol-2-yl)methyl)-5-(oxazol-5-yl)isophthalamide], the pIC50 in test [1] is more than 6.00. For the same compound, the pKi in test [2] and in test [4] (fluorogenic substrate FS-2) was more than 6.52 each time.
On to `Cc1csc(CN(C)C(=O)c2cc(C(=O)N[C@@H](Cc3ccccc3)[C@H](O)CNCc3cncc(C(C)(C)F)c3)cc(N(C)C)c2)n1` [Compound 220, 5-(dimethylamino)-N1-((2S,3R)-4-((5-(2-fluoropropan-2-yl)pyridin-3-yl)methylamino)-3-hydroxy-1-phenylbutan-2-yl)-N3-methyl-N3-((4-methylthiazol-2-yl)methyl)isophthalamide], for which the negative logarithm of the IC50 (pIC50) in test [1] is more than 6.00. Besides, the pKi in test [2] and in test [4] (fluorogenic substrate FS-2) was more than 6.52 in each case.
For `Cc1csc(CN(C)C(=O)c2cccc(C(=O)N[C@@H](Cc3ccccc3)[C@H](O)CNCc3cc(CS(C)(=O)=O)cc(C(C)C)c3)c2)n1` [Compound 228, N1-((2S,3R)-3-hydroxy-4-(3-isopropyl-5-(methylsulfonylmethyl)benzylamino)-1-phenylbutan-2-yl)-N3-methyl-N3-((4-methylthiazol-2-yl)methyl)isophthalamide], in test [1], the pIC50 was more than 6.00. Further, the results for the pKi in test [2] and in test [4] (fluorogenic substrate FS-2) were 6.30 to 6.52 and more than 6.52, respectively.
As for `Cc1csc(CN(C)C(=O)c2cc(C(=O)N[C@@H](Cc3ccccc3)[C@H](O)CNCc3cccc(C(F)(F)F)c3)cc(C(C)C)c2)n1` [Compound 273, N1-((2S,3R)-3-hydroxy-1-phenyl-4-(3-(trifluoromethyl)benzylamino)butan-2-yl)-5-isopropyl-N3-methyl-N3-((4-methylthiazol-2-yl)methyl)isophthalamide], the negative-log IC50 (pIC50) in test [1] is more than 6.00. In addition, in test [4] (fluorogenic substrate FS-2), the pKi is more than 6.52.
Taken in the same sequence, the figures for `Cc1csc(CN(C)C(=O)c2cc(C(=O)N[C@@H](Cc3ccccc3)[C@H](O)CNCc3cncc(C(C)C)c3)cc(C(C)C)c2)n1` [Compound 274, N1-((2S,3R)-3-hydroxy-4-((5-isopropylpyridin-3-yl)methylamino)-1-phenylbutan-2-yl)-5-isopropyl-N3-methyl-N3-((4-methylthiazol-2-yl)methyl)isophthalamide] were more than 6.00 and more than 6.52.
Turning to `CC(=O)Nc1cc(CNC[C@@H](O)[C@H](Cc2ccccc2)NC(=O)c2cccc(C(=O)N(C)Cc3nc(C)cs3)c2)cc(C(F)(F)F)c1` [Compound 276, N1-((2S,3R)-4-(3-acetamido-5-(trifluoromethyl)benzylamino)-3-hydroxy-1-phenylbutan-2-yl)-N3-methyl-N3-((4-methylthiazol-2-yl)methyl)isophthalamide], the negative-log IC50 (pIC50) in test [1] was more than 6.00. The pKi in test [4] (fluorogenic substrate FS-2) is more than 6.52.
The like results for `Cc1csc(CN(C)C(=O)c2cc(C(=O)N[C@@H](Cc3ccccc3)[C@H](O)CNCc3cncc(C(C)(C)F)c3)cc(C(C)C)c2)n1` [Compound 277, N1-((2S,3R)-4-((5-(2-fluoropropan-2-yl)pyridin-3-yl)methylamino)-3-hydroxy-1-phenylbutan-2-yl)-5-isopropyl-N3-methyl-N3-((4-methylthiazol-2-yl)methyl)isophthalamide] were, in that order, more than 6.00 and more than 6.52.
Taken in the same sequence, the figures for `CC(C)c1cncc(CNC[C@@H](O)[C@H](Cc2ccccc2)NC(=O)c2cccc(C(=O)N(C)Cc3nc(CF)cs3)c2)c1` [Compound 278, N1-((4-(fluoromethyl)thiazol-2-yl)methyl)-N3-((2S,3R)-3-hydroxy-4-((5-isopropylpyridin-3-yl)methylamino)-1-phenylbutan-2-yl)-N1-methylisophthalamide] were more than 6.00 and more than 6.52.
Take `CO/C=C(/C)c1cncc(CNC[C@@H](O)[C@H](Cc2ccccc2)NC(=O)c2cccc(C(=O)N(C)Cc3nc(C)cs3)c2)c1` [Compound 279, N1-((2S,3R)-3-hydroxy-4-((5-((Z)-1-methoxyprop-1-en-2-yl)pyridin-3-yl)methylamino)-1-phenylbutan-2-yl)-N3-methyl-N3-((4-methylthiazol-2-yl)methyl)isophthalamide]: the negative logarithm of the IC50 (pIC50) in test [1] was more than 6.00. In addition, the pKi in test [4] (fluorogenic substrate FS-2) is 6.30 to 6.52.
Taken in the same sequence, the figures for `CN(Cc1nc(CF)cs1)C(=O)c1cccc(C(=O)N[C@@H](Cc2ccccc2)[C@H](O)CNCc2cncc(C(F)(F)F)c2)c1` [Compound 280, N1-((4-(fluoromethyl)thiazol-2-yl)methyl)-N3-((2S,3R)-3-hydroxy-1-phenyl-4-((5-(trifluoromethyl)pyridin-3-yl)methylamino)butan-2-yl)-N1-methylisophthalamide] were more than 6.00 and more than 6.52.
Taken in the same sequence, the figures for `Cc1csc(CN(C)C(=O)c2cc(C(=O)N[C@@H](Cc3ccccc3)[C@H](O)CNCc3cncc(C(C)(C)F)c3)cc(C(F)F)c2)n1` [Compound 293, 5-(difluoromethyl)-N1-((2S,3R)-4-((5-(2-fluoropropan-2-yl)pyridin-3-yl)methylamino)-3-hydroxy-1-phenylbutan-2-yl)-N3-methyl-N3-((4-methylthiazol-2-yl)methyl)isophthalamide] were more than 6.00 and more than 6.52.
The like results for `COC1(OC)CCN(c2cc(C(=O)N[C@@H](Cc3ccccc3)[C@H](O)CNCc3cncc(C(C)C)c3)cc(C(=O)N(C)Cc3nc(C)cs3)c2)C1` [Compound 299, 5-(3,3-dimethoxypyrrolidin-1-yl)-N1-((2S,3R)-3-hydroxy-4-((5-isopropylpyridin-3-yl)methylamino)-1-phenylbutan-2-yl)-N3-methyl-N3-((4-methylthiazol-2-yl)methyl)isophthalamide] were, in that order, more than 6.00 and more than 6.52.
